Measurements as given in patent US9279810B2, “Cell binding peptides for diagnosis and detection” (Affinergy, LLC, priority 2013, dated 2016).

Columns and labels:
[1] = system: J82 bladder cancer cells; experiment: Capture of cultured J82 tumor cells from urine with biotinylated cell binding peptide on streptavidin magnetic beads; type: cell-based, human; conditions: for J82 bladder tumor cells: cells captured on peptide-magnetic bead conjugate from 5 ml human urine, leukocyte:J82 mixture 12.5:1 to 20:1, unit not given; for Enrichment Factor: ratio J82:total leukocytes after capture divided by ratio before capture, urine
Description: (§1) A green fluorescent leukocyte preparation was prepared as follows. Red blood cells in 2 ml anti-coagulated human blood were lysed by the addition of 30 ml of a hypotonic medium and incubation for 10 min at room temperature. Intact cells and debris were recovered by centrifugation at 300×g. Pelleted material was resuspended with PBS/0.5% BSA/2 mM EDTA and filtered through a 100 micron nylon filter. Leukocytes (3×10^6) were labeled with 5 μM Cell Tracker Green CMFDA (LIFE TECHNOLOGIES/MOLECULAR PROBES) in EMEM growth medium without serum for 45 min. Excess dye was removed by centrifugation at 500×g for 5 min and washing with PBS/0.5% BSA/2 mM EDTA and cells were exposed to 10% serum containing medium for 45 min to allow dye conversion.
(§2) Red fluorescent J82 cells were prepared as follows: An 80% confluent culture of J82 bladder cancer cells was labeled with 5 μM Cell Tracker Red CMPTX (LIFE SCIENCES/MOLECULAR PROBES) in EMEM growth medium without serum for 90 min. Excess dye was removed by washing the flask with EMEM/10% FBS and cells were exposed to 10% serum containing medium for 1.5 h for dye conversion. The cells were then washed with PBS and released from the flask with 0.05% trypsin. Cells were recovered and trypsin removed by centrifugation at 500×g followed by washing in PBS/0.5% BSA/2 mM EDTA.
Biotinylated peptides SEQ ID NO: 1 and SEQ ID NO: 10 were synthesized with a C-terminal Peg10 group attached to a lysine as described in Example 1. The biotinylated peptides were conjugated to magnetic microbeads (MILTENYI) by incubating 400 μl of bead suspension in 20 μM peptide for 30 min on ice with occasional mixing. Unbound peptide was removed by binding the beads to a Miltenyi MS column placed in a magnetic field. Beads were washed with PBS/0.5% BSA/2 mM EDTA and peptide conjugated beads released by removing the Miltenyi MS column from the magnetic field. A mixture of green fluorescent leukocytes and red fluorescent J82 bladder cancer cells was variously prepared in ratios between 12.5:1 and 20:1. The cell mixture (725,000 cells total) was added to 5 ml human urine and then 250 μl of peptide-magnetic bead conjugate. The whole was incubated for 45 min at room temperature with rotation.
To capture cells the peptide-magnetic bead cell mixture was passed over a Miltenyi MS column pre-equilibrated with PBS/0.5% BSA/2 mM EDTA and held in a magnetic field. Unbound cells were washed out with PBS/0.5% BSA/2 mM EDTA and retained. Cells bound to the peptide-magnetic bead conjugate were released from the Miltenyi MS column by removing the column from the magnetic field. […] The data in FIG. 3 and Table 2 below show a 463-fold to 588-fold enrichment of J82 cells from leukocytes in urine. […]

[2] = system: blood leukocytes; experiment: Capture of leukocytes from urine with biotinylated cell binding peptide on streptavidin magnetic beads (same test, obscuring cells); type: cell-based; conditions: cells captured on peptide-magnetic bead conjugate from 5 ml human urine; leukocyte:J82 mixture 12.5:1 to 20:1; unit not given
Description: as §1
as §2, with “EDTA. […]” for “EDTA.”

[3] = system: primary cells from voided urine; experiment: Capture of primary cells from voided urine on peptide coated glass slide; type: cell-based, human; conditions: for Number of captured basal and intermediate cells/peptide coated area / Number of captured superficial and squamous cells/peptide coated area: cells from 40 mL voided urine, entire peptide coated area 2.67 cm^2, H&E, bright field; for peptide selectivity: preferential capture of cell type: primary cells from voided urine
Description: (§3) Peptides were synthesized in a conjugatable format for unidirectional conjugation to glass. Peptides were attached to glass through a covalent bond formed between the lysine on C-terminus of the peptide and an N-Hydroxysuccinimide (NHS) group on the glass. Briefly, microscope glass slides functionalized with NHS groups ((MICROSURFACES, Inc)) were incubated with peptide solution at 200 μM for 2 hours at 30° C., ˜75% RH. At the end of the incubation the slides were washed 3 times for 5 min in washing buffer (1×PBS, 0.05% Tween 20) and subsequently deactivated in deactivation solution (MICROSURFACES, Inc) for 30 min at 30° C., ˜75% RH to deactivate any remaining uncoupled NHS groups. Eventually slides were washed twice for 5 min in washing buffer prior to being blocked for 1 hour in blocking buffer (PBS, 0.5% BSA, 2 mM EDTA).
(§4) Microscope glass slides with discrete areas functionalized with peptide were used as diagnostic cell capture devices as shown in FIG. 1. Cells used were cultured cell lines established from human transitional bladder carcinomas (J82, ATCC HTB-1 and T24, ATCC HTB-4), cells isolated from voided urine of healthy donors (primary cells), a cultured cell line established from human thyroid carcinoma (SW579) or white blood cells (WBC) obtained from human whole blood by lysing red blood cells.
(§5) Cell suspension was prepared in cell capture buffer (PBS, 0.5% BSA, 2 mM EDTA, 0-200 mM glucose) and applied directly to a peptide functionalized slide in which peptide was attached to a glass slide using the N-Hydroxysuccinimide chemistry described in Example 4 with a pipetting device. The cells were incubated on the slide for 15 min and then drained by tipping the slide to the side. The slides were washed by dipping in wash buffer (PBS, 0.5% BSA, 2 mM EDTA) to wash away unbound cells. Slides were fixed in paraformaldehyde, dried, stained (H&E) and cover slipped for microscopic examination in a bright field. For fluorescent microscopy the cells were labeled with fluorescent dyes (CELLTRACKER Green or Red; LIFE TECHNOLOGIES, INC) prior to applying to the slide. Following the 15 min incubation the slides were washed, fixed, dried and mounted with a fluorescent mounting medium for microscopic examination in a dark field.
(§6) Selective capture of urothelial cells, J82, was achieved from a mixture of J82 and white blood cells (WBC) on a peptide coated glass slide using cell binding peptides of the present disclosure. In this Example, peptides were synthesized with a C-terminal Peg10 spacer followed by a lysine and conjugated to the glass slide according to Example 4.
In another experiment, primary cells from voided urine were selectively captured onto peptide coated glass slides. Specifically, cells were isolated from 40 mL of voided urine from a second morning void and applied to a glass slide with a discrete area coated with peptide. Cells were visualized by H&E staining and counted in a bright field. Results are presented in Table 3 below as a cell number per the entire peptide coated area (2.67 cm^2). […] The sample adequacy criterion for urine cytology is at least 15 well visualized basal or intermediate cells^1.

[4] = system: J82 urothelial cancer cells; experiment: Selective capture of J82 urothelial cells from a mixture of J82 and white blood cells on peptide coated glass slide; type: cell-based, human
Description: as §3, §4, §5, §6
The cell binding peptides used in a first experiment were SEQ ID NO: 1, SEQ ID NO: 2, SEQ ID NO: 3, and SEQ ID NO: 4. […] Human WBC and J82 cells were labeled with different CELLTRACKER dyes, mixed at a 1 to 1 ratio and applied to a slide with discrete areas coated with peptides. The slide was washed of unbound cells and captured cells were counted under a fluorescent microscope. Data are presented in FIGS. 5A & 5B as cell number per microscope field at 100× magnification averaged from 10 fields. The slide area not coated with peptide was used as a negative control. Preferential capture of J82 urothelial cells was observed leading to depletion of WBC up to 85%. […] Thus the degree of WBC removal from the diagnostic sample can be controlled by using a peptide most suitable for the application. For example, in some circumstances the presence of some WBCs on the slide may provide valuable clinical information.
In another experiment, selective capture of urothelial cancer cells, J82, was achieved from a mixture of J82 and WBC on a peptide coated glass slide using peptides SEQ ID NO: 5, SEQ ID NO: 6, and SEQ ID NO: 7. […] Human WBC and J82 cells were labeled with different CELLTRACKER dyes, mixed at 7 to 1 ratio and applied to a slide with discrete areas coated with peptides. The slide was washed of unbound cells and captured cells were counted under a fluorescent microscope. […]

[5] = system: SW579 thyroid cancer cells; experiment: Selective capture of SW579 thyroid cells from a mixture of SW579 and WBC on peptide coated glass slide; type: cell-based, human; conditions: WBC:SW579 1 to 1; compared with SEQ ID NO: 4 and SEQ ID NO: 1
Description: as §3
Microscope glass slides with discrete areas functionalized with peptide were used as diagnostic cell capture devices as shown in FIG. 1. […]
In a first experiment peptides SEQ ID NO: 1, SEQ ID NO: 2, SEQ ID NO: 3 and SEQ ID NO: 4 were tested and peptide SEQ ID NO: 10 was used as a positive control. […] The slide was washed of unbound cells and captured cells were counted under a fluorescent microscope. […]

[6] = system: thyroid cancer cells; experiment: Selective capture of thyroid cancer cells spiked with whole blood on peptide coated slide; type: cell-based, human; conditions: H&E staining, 200x
Description: as §4
as §5, with “Following the 15 min incubation the slides were washed, fixed, dried and mounted with a fluorescent mounting medium for microscopic examination in a dark field.” left out

[7] = system: J82 urothelial cancer cells; experiment: Selective capture of J82 urothelial cancer cells from voided urine spiked with whole blood on peptide coated slide; type: cell-based, human; conditions: voided urine spiked with whole blood and J82 cells; H&E staining, 100x
Description: as §4
as §5, with “The” for “Cell suspension was prepared in cell capture buffer (PBS, 0.5% BSA, 2 mM EDTA, 0-200 mM glucose) and applied directly to a peptide functionalized slide in which peptide was attached to a glass slide using the N-Hydroxysuccinimide chemistry described in Example 4 with a pipetting device. The”
In this Example, peptides were synthesized with a C-terminal Peg10 spacer followed by a lysine and conjugated to the glass slide according to Example 4.
In another experiment urothelial cancer cells from voided urine were selectively captured using peptide SEQ ID NO: 5. […]

[8] = J82 (100, 500 or 1000 cells) and WBC mixed 1:72, 15 min incubation
[9] = WBC:J82 1 to 1, compared with SEQ ID NO: 1 and SEQ ID NO: 4
[10] = WBC:J82 7 to 1, compared with SEQ ID NO: 7

SFCPSNHDCIDWFIRSR [SEQ ID NO: 10, used as positive control in the thyroid test]
J82 bladder tumor cells [1]: 53.6
Enrichment Factor [1]: 588
Total Blood Leukocytes [2]: 0.09

SSFGSDCSPWGCEWVPVSR [SEQ ID NO: 4]
Number of captured basal and intermediate cells/peptide coated area [3]: 21 cells/peptide coated area
Number of captured superficial and squamous cells/peptide coated area [3]: 6 cells/peptide coated area
peptide selectivity: preferential capture of cell type [3]: deep urothelial cells

SSFSNYDSPWGPNWSVISR [SEQ ID NO: 1]
J82 bladder tumor cells [1]: 48.2
Enrichment Factor [1]: 463
Total Blood Leukocytes [2]: 0.1

SSIEDLPKDWPLFGWMSSR [SEQ ID NO: 2]
depletion of WBCs from the input material [4, 8]: 86%
reduction in WBCs relative to urothelial cells [4, 8]: 7.6 fold
capture selectivity (WBC to J82 end ratio) [4, 9]: more selective
capture selectivity (WBC to SW579 end ratio) [5]: more selective

SSLESVKEPWGPGWIPVSR [SEQ ID NO: 3]
capture selectivity (WBC to J82 end ratio) [4, 9]: more selective
capture selectivity (WBC to SW579 end ratio) [5]: more selective
selective capture of thyroid cancer cells, slide washed [6]: Blood cells are washed away and thyroid cells retained

SSVALSFQAVPYDFHSSR [SEQ ID NO: 5]
capture selectivity (WBC to J82 end ratio) [4, 10]: more selective
Number of captured basal and intermediate cells/peptide coated area [3]: 40 cells/peptide coated area
Number of captured superficial and squamous cells/peptide coated area [3]: 19 cells/peptide coated area
peptide selectivity: preferential capture of cell type [3]: deep urothelial cells
selective capture of urothelial cancer cells, slide washed [7]: Blood cells are washed away and urothelial cells retained

SSVQHAYQAWPGLGAYTSR [SEQ ID NO: 6]
capture selectivity (WBC to J82 end ratio) [4, 10]: more selective
Number of captured basal and intermediate cells/peptide coated area [3]: 5 cells/peptide coated area
Number of captured superficial and squamous cells/peptide coated area [3]: 35 cells/peptide coated area
peptide selectivity: preferential capture of cell type [3]: superficial and squamous cells
